Reference: US10556860B2, “hTERT modulators and methods of use” (Arizona Board of Regents on Behalf of the University of …, priority 2015, dated 2020)

Legend:
[1] = test system: G138/139A mutant hTERT 5-12 fragment; experiment: Single-molecule laser tweezer unfolding, G138/139A mutant; assay type: biochemical, human; conditions: 2 μM
Protocol: Single-molecule tweezer. Preparation of the DNA construct. The DNA construct that contains the single-stranded hTERT 5-12 fragment was prepared by sandwiching the target sequence between two double-stranded DNA handles. Five deoxythymidines were added at both ends of the hTERT 5-12 fragment to reduce the interference from the double-stranded DNA handles on the target sequence. Briefly, the 2690-base-pair double-stranded DNA handle was prepared through restriction enzyme digestion of the pEGFP vector (Clontech, Mountain View, Calif.). In the first step, the vector was digested by Sad and Eagl restriction enzymes, followed by purification with agarose gel. The EagI end of the DNA fragment was labeled with digoxigenin using terminal deoxynucleotidyl transferase. […]
Single-molecule force-ramp assay. […] After this, the two beads were moved apart to increase the tension on the DNA tether with a loading rate of 5.5 pN/s, and the force-extension (F-X) curves were recorded using the LabVIEW program (National Instruments Corp., Austin, Tex.).
The F-X curves were filtered by Savitzky-Golay function with a 10 ms time constant in the MATLAB program (The Math Works, Natick, Mass.). […] The change-in-contour length (ΔL) was calculated based on the Δx through the worm-like chain model (equation 1). […]

WT 5-12 G-quadruplex = experiment: CD kinetics, temperature-jump, WT; assay type: biochemical, human; conditions: 2 equiv
Protocol: FIGS. 10A and 10B are a set of graphs showing (A) comparison of kinetics of initial folding rate of the WT 5-12 G-quadruplex with GTC365 and BRACO-19 by the temperature-jump method. (B) Enhanced initial folding rate of the 5-12 G-quadruplexes carrying different hTERT mutants by GTC365. The time-course CD signal of preheated oligo with compound or DMSO in a buffer containing 10 mM Tris-HCl (pH 7.5) and 5 mM KCl was monitored at 262 nm and 25° C.
For the kinetics analysis using the temperature-jump method, theoligo in a buffer containing 10 mM Tris-HCl (pH 7.5) was heated forl min at 95° C., and then a mixture of KCl and compound was addedand incubated for 1 min. Meanwhile, the CD cuvette was also heatedat 95° C. As soon as the sample in the CD cuvette at the hightemperature was placed in the CD chamber, a time-dependent CDsignal at 262 nm was recorded immediately. The initial folding ratewas determined by one-phase association curve fitting (eq 1) of thekinetics curve using GraphPad Prism 5: Y=Y0+(Plateau−Y0)*(1−e^−kx) (1) where Y is the CD signal at any time point x, Y0 is the Y value whentime (x) is zero, plateau is the Y value at infinite time, and k is the rateconstant.
To evaluate the comparative effects of GTC365 relative to BRACO-19 on the cooperative folding process, we carried out two different experiments. First, we compared the distribution of the different populations of small and large species using single-molecule experiments as described previously withGTC365 and BRACO-19 in the G138/139A mutant. Similar to the G124/125A mutant, the population of fully folded structures is small in the G138/139A mutant without addition of ligand. […] We then used a temperature-jump method84to compare the initial folding rate of the 5-12 WT G-quadruplex with GTC365 and BRACO-19 using a time-course CD signal curve. […] GTC365 alsoincreased the initial folding rates of G124A, G124/125A, andG146A in a dose-dependent manner by 0.049, 0.042, and 0.054s^−1 at 2 equiv, whereas the effect on the G138/139A mutant was insignificant (FIG. 10B). […]

Row | SMILES | population of fully folded structures [1] | increase of initial folding rate (WT 5-12 G-quadruplex) | initial folding rate (WT 5-12 G-quadruplex; without compound 0.051, 5 mM KCl, 25° C.)
1 | CN(C)c1ccc(Nc2c3ccc(NC(=O)CCN4CCCC4)cc3nc3cc(NC(=O)CCN4CCCC4)ccc23)cc1 [BRACO-19, reference compound] | minimallypromoted the fully folded structure | 0.017 s⁻¹ | 
2 | N=C(N)NCCCS(=O)(=O)Nc1ccc(Nc2c3ccccc3nc3cc([N+](=O)[O-])ccc23)cc1 [GTC365] | significantly recovered | 0.042 s⁻¹ | 0.093 s⁻¹
